Assay type in all cases: in vivo
Assay [1] has as its system SCID-IBD mice. The assay is described as follows: SCID-IBD mouse model: overall disease inhibition / effective dose. As to conditions: single treatment groups: ASM 60, 30, 10 mg/kg/d; Compound A 0.1, 0.05 mg/kg/d. The source says: (§1) Female BALB/cJ and C.B.17 scid/scid mice (Fox Chase SCID®, Bomholtgaard, Denmark) are maintained in ventilated cage racks (Micro-vent type 84-II, Allentown Caging Equipment Co., Allentown, N.J., USA) under specific pathogen free conditions. The experimental procedures performed on the mice are authorized under the license number MA 1048/00 (Magistratabteilung No. 58, Amt der Wiener Landesregierung).
Briefly, CD4^+CD45RB^HI T lymphocytes are isolated from BALB/c mouse spleens by two-colour FACS-sorting through a live/dead gate and injected (2×10^5 cells/mouse, i.p.) into 6-9 week old female SCID mice. […]
(§2) The increasing T cell population with time also results in an increase in size of lymphoid organs which are otherwise comparatively small in the non-transferred SCID mouse. By day 28 post T cell transfer the inflammation is relatively consistent within a group of mice and this has been adopted as the shortest time where accurate effects of treatment with test compounds can be measured. The effects of a range of doses of Compound A and ASM as single preventative compounds are, in brief, comparative effective dose ranges are found to be from 30 to 100 mg/kg/d administration of ASM and 0.1 to 1 mg/kg/d of Compound A. In the present tests sub-maximal doses of each compounds are used and the effect of the single and combined treatment in the same study is determined.

For assay [2], the system named is SCID-IBD mice. The assay is described as follows: SCID-IBD mouse model: loss of body weight. As to conditions: for effect on the loss of body weight: either compound alone at the dosages used (ASM 60, 30, 10 mg/kg/d; Compound A 0.1, 0.05 mg/kg/d), daily oral gavage.
From the text: as §1
Briefly, CD4^+CD45RB^HI T lymphocytes are isolated from BALB/c mouse spleens by two-colour FACS-sorting through a live/dead gate and injected (2×10^5 cells/mouse, i.p.) into 6-9 week old female SCID mice. Negative control mice receive PBS i.p. and one such mouse is in each cage as a sentinel to monitor possible infections in this immunodeficient colony (PBS-mice).
SCID mice are first reconstituted with the CD4^+CD45RB^HI T cells and then treated with test compounds or vehicle as controls. As test compounds Compound A (RAD) and pimecrolimus (ASM) are used. 3 separate studies using different dosaging are carried out. In each study both compounds are administered alone and combined. […]
The body weight of each mouse is monitored throughout and at the end of the study mice are weighed.
All data presented as mean values are qualified by an s.e.m. value. The body weight data are analysed either by repeated measures analysis or by first finding the mean AUC and then applying an ANOVA multiple comparison test with Tukey post hoc correction. […] All other data are first analysed for normal distribution and then the ANOVA test for multiple comparison is applied. […]
The first visible symptom resulting from the transfer of disease causing CD4^+CD45RB^HI T cells to SCID mice is a severe loss of body weight, usually significant 21 days after transfer. […] In the 3 individual studies described herein, the mean % difference in body weight between the non-transferred and the vehicle-treated mice is calculated to be 16.3±1.8%.

In assay [3] the test system is SCID-IBD mice. The assay is described as follows: SCID-IBD mouse model: colon inflammation, histological severity score. As to conditions: for effect on colon inflammation (severity scores): low dose study: ASM 10 mg/kg/d, Compound A 0.05 mg/kg/d, alone or combined. The procedure: (§3) SCID mice are first reconstituted with the CD4^+CD45RB^HI T cells and then treated with test compounds or vehicle as controls. As test compounds Compound A (RAD) and pimecrolimus (ASM) are used. 3 separate studies using different dosaging are carried out. In each study both compounds are administered alone and combined. All 3 studies follow the same basic protocol of 4 groups of mice with one group receiving, by daily oral gavage, both vehicles (placebo), one group Compound A alone, one group ASM alone, and one group a combination of Compound A and pimecrolimus, from day 1 to day 29 after cell transfer.
A photographic picture is taken of the opened abdominal cavity and then a 1 cm long piece of the colon, just above the rectum, is fixed in formalin for histology.
(§4) Specimens are embedded in paraffin, sections (3 μm thick) are cut and stained with H & E. Four colour FACS analysis is performed on cell suspensions prepared from the blood, spleen and mesenteric lymph nodes (MLNS) of each mouse.
All data presented as mean values are qualified by an s.e.m. value. The body weight data are analysed either by repeated measures analysis or by first finding the mean AUC and then applying an ANOVA multiple comparison test with Tukey post hoc correction. Histology scores are represented as the mean severity score and compared with a Wilcoxon-Mann-Whitney test with exact p-values (StatXact-5 software) and Bonferroni post hoc correction factor. All other data are first analysed for normal distribution and then the ANOVA test for multiple comparison is applied. Statistical significance is taken as p<0.05.
The inflammation in the colon of SCID-IBD mice shares many features observed in lesional tissue of a Crohn's diseased colon. In order to examine the intestinal mucosal damage in SCID-IBD mice a histological examination of the colon sections was performed according to defined morphological parameters. The severe colitis associated with this model of IBD is characterized with a massive cellular infiltrate which in places involves nearly all of the submucosa. The infiltrate is mixed and comprised of lymphocytes, macrophages, neutrophils and some eosinophils. Also evident is the loss of crypt architecture, extensive elongation and epithelial hyperplasia. A severely inflamed colon section will also have crypt abscesses. Numeric scores were given as per the following scheme: a score of 0 to 3 is given for the leucocyte infiltrate where 1 is mild, 2 is moderate and 3 is a severe infiltrate including the submucosal layer. A score of 0 to 2 is given for Goblet cell depletion where 2 is given for a complete lack of the alcian blue staining, 0 is given for a normal amount of staining and 1 is intermediate. […] The maximum possible score is 8 and (PBS)-mice are scored 0. […]

The test system of assay [4] is SCID-IBD mice. The assay is described as follows: SCID-IBD mouse model: lymphocyte numbers (CD3+CD4+) by FACS in blood, spleen and MLN. As to conditions: for lymphocyte numbers in single treatment groups: study 2: ASM 30 mg/kg/d or Compound A 0.1 mg/kg/d administered alone. How it is done: as §3
Blood is also taken into 10 mM EDTA for preparation for FACS analysis.
The spleen and MLN are taken from each mouse, weighed and processed for FACS analysis of single cell suspensions.
as §4
Antibodies are obtained from Pharmingen. Cells which are double positive for CD3 and CD4 are counted as lymphocytes. Cells positive for Ly-6G (myeloid differentiation antigen) and negative for CD3 or CD4 are neutrophils (also their cellular characteristics (forward and side scatter) distinguishes them from the other cells).
The number of cells per sample is calculated from the total cell number in each cell suspension and the % of positively identified (samples analysed on a FACS Calibur® using CellQuest Pro® software) cells per sample.
(§5) The mean of these values for a group of mice can thus be calculated. To process some of the data further, the determined values are adjusted by subtracting the background value found in non-transferred mice and calculating the % reduction, or indeed increase, in mean cell number, relative to the placebo treated group.
For orientation: A flow cytometer gives signals particle by particle.

In assay [5] the test system is SCID-IBD mice. The experiment in a line: SCID-IBD mouse model: serum haptoglobin levels. As to conditions: for reduction of serum haptoglobin levels: ASM at 60 and 30 mg/kg/d, Compound A at 0.1 or 0.05 mg/kg/d, alone; for % reduction of serum haptoglobin: low dose study: ASM 10 mg/kg/d, Compound A 0.05 mg/kg/d, alone or combined. The procedure:
as §3
The mice are anaesthetized at the end of the study and blood withdrawn via cardiac puncture for separation into serum which is frozen and stored at −80°.
as §5, §2

Here are results for two compounds from US20060154952A1, “Pharmaceutical compositions comprising a combination of rapamycin or its derivative and pimecrolimus for the treatment of inflammation-and ummunologically-mediated diseases” (priority 2003, published 2006).

Take `CC[C@@H]1/C=C(\C)C[C@H](C)C[C@H](OC)[C@H]2O[C@@](O)(C(=O)C(=O)N3CCCC[C@H]3C(=O)O[C@H](/C(C)=C/[C@@H]3CC[C@H](Cl)[C@H](OC)C3)[C@H](C)[C@@H](O)CC1=O)[C@H](C)C[C@@H]2OC` [ASM, {[1E-(1R,3R,4S)]1R,9S,12S,13R,14S,17R,18E,21S,23S,24R,25S,27R}-12-[2-(4-chloro-3-methoxycyclohexyl)-1-methylvinyl]-17-ethyl-1,14-dihydroxy-23,25-dimethoxy-13,19,21,27-tetramethyl-1,28,dioxa-4-azatricyclo [22.3.1.0(4,9)]octacos-18-ene-2,3,10,16-tetraone]: the “disease inhibition, single treatment” value with SCID-IBD mice [1] is “significant effects”. The “inhibition of weight loss” value with SCID-IBD mice [2] (ASM alone 60 mg/kg/d, daily oral gavage day 1 to 29) is reported as “significant, but low inhibition of weight loss”. Besides, in the assay with SCID-IBD mice [2], the “effect on the loss of body weight” value is reported as “only minor effects”. For the same compound, in the assay on SCID-IBD mice [3] (ASM981 60 mg/kg/d alone), the “effect on colon inflammation (histology severity score)” value is on record as “significant effect”. For the same compound, the “effect on colon inflammation (severity scores)” value in the assay with SCID-IBD mice [3] is on record as “very little effect”. Besides, the “reduction in lymphocyte numbers in MLN” value with SCID-IBD mice [4] (study 1: ASM 60 mg/kg/d, alone or combined with Compound A 0.1 mg/kg/d) is 73.5%. Also, the “lymphocyte numbers in single treatment groups” value in the assay with SCID-IBD mice [4] was “not reduced”. Further, in the assay on SCID-IBD mice [5], the “reduction of serum haptoglobin levels” value was “potently reduces” and the “% reduction of serum haptoglobin” value was 32.7%.

Take `CO[C@H]1C[C@@H]2CC[C@@H](C)[C@@](O)(O2)C(=O)C(=O)N2CCCC[C@H]2C(=O)O[C@H]([C@H](C)C[C@@H]2CC[C@@H](OCCO)[C@H](OC)C2)CC(=O)[C@H](C)/C=C(\C)[C@@H](O)[C@@H](OC)C(=O)[C@H](C)C[C@H](C)/C=C/C=C/C=C/1C` [Compound A, 40-O-(2-hydroxyethyl)-rapamycin]: in the assay with SCID-IBD mice [2], the “effect on the loss of body weight” value is “only minor effects”. The “activity on colon inflammation” value in the assay on SCID-IBD mice [3] (Compound A alone at doses below 0.5 mg/kg/d) is reported as “not significantly active”. Moreover, the “effect on colon inflammation (severity scores)” value in the assay on SCID-IBD mice [3] is “very little effect”. Further, the “effects on lymphocyte numbers” value with SCID-IBD mice [4] (Compound A 0.1 mg/kg/d alone) is “only weal, if any effects”. Besides, the “lymphocyte numbers in single treatment groups” value with SCID-IBD mice [4] is reported as “not reduced”. In the assay on SCID-IBD mice [5], the “reduction of serum haptoglobin levels” value was “very weakly active” and the “% reduction of serum haptoglobin” value is listed as 27.4%.
